This is an account of results in US6673576B1, “Process for producing nucleic acids” (priority 1995, dated 2004).

In series [1] the target is T1, inosine-guanosine kinase derived from Exiguobacterium acetylicum (Exiguobacterium acetylicum, UniProt O24767). The series is described as follows: Effect of metal ions on the purified kinase. As to conditions: for Relative activity: Metal salts (1 mM) present in the reaction mixture, not added = 100; for inhibition of the enzyme by metal ions (in words): 1 mM metal ions. The series is classed as biochemical. As to the method:
(§1) Fifty microliter of this reaction mixture was used as a basic composition and the reaction was carried out at 30° C. for 10 minutes. The enzyme had the following properties.

In series [2] the target is T1, inosine-guanosine kinase derived from Exiguobacterium acetylicum. The series is described as follows: Metal requirement of the purified kinase. It is filed as biochemical. As to conditions: for Relative activity: Metal salts (5 mM) instead of magnesium chloride, MgCl2 = 100; for metal requirement (in words): metal ions replacing magnesium chloride. As to the method:
as §1
The reaction was performed by changing magnesium chloride to various metal ions in the reaction solution.

For series [3] the target is unchanged. The series is described as follows: Substrate specificity (nucleoside as phosphate receptor) of the purified kinase. The series is classed as biochemical. The settings on record: for Relative activity: Nucleoside (0.5 mM) instead of guanosine, [γ-32P]-ATP, guanosine = 100; for use as phosphate receptor (in words): 0.5 mM nucleoside. As to the method:
as §1
The reaction was performed by using 0.5 mM of each of various nucleosides instead of guanosine and [Υ-^32P]-ATP instead of ATP. The thus-formed nucleoside 5′-phosphate was measured.

Series [4] has the same target. The series is described as follows: Phosphate donor specificity (nucleoside triphosphates) of the purified kinase. The settings on record: for use as phosphate donor (in words): 5 mM nucleoside triphosphate; for Relative activity: Nucleoside triphosphate (5 mM) instead of ATP, ATP = 100. It is filed as biochemical. As to the method:
as §1
The reaction was performed by using 5 mM of each of various nucleoside triphosphates instead of ATP, and the possible phosphate donors were examined.

A short description of series [5]: pH and temperature optimum and stability of the purified kinase. It is filed as biochemical, Exiguobacterium acetylicum. As to the method:
as §1
The reaction was performed by changing the buffer to 100 mM of sodium acetate-acetic acid buffer (pH 4.2-5.6), 2-morphorinoethanesulfonic acid (hereinafter referred to as “MES”)-sodium hydroxide buffer (pH 5.4-6.3), 3-morphorinopropanesulfonic acid (MOPS)-sodium hydroxide buffer (pH 6.3-7.2), Tris-hydrochloride buffer (pH 7.2-8.8), cyclohexylaminopropanesulfonic acid (hereinafter referred to as “CAPS”)- sodium hydroxide buffer (pH 8.8-10.4) or glycine-sodium hydroxide buffer (pH 10.3-11.0). The optimum pH was between 7.7 and 9.9.
The enzyme was treated at room temperature for 30 minutes with 250 mM sodium acetate-acetate buffer ([…]), MES-sodium hydroxide buffer (pH 5.4-6.4), MOPS-sodium hydroxide buffer (pH 6.3-7.3), Tris-hydrochloride buffer (pH 7.2-8.8), CAPS-sodium hydroxide buffer (pH 8.9-10.4) or glycine-sodium hydroxide buffer (pH 10.5-13.3), each containing 2.5 mg/ml of bovine- serum albumin, 25 mM potassium chloride, 0.25 mM dithiothreitol and 5% glycerol. Then, the activity of the enzyme was measured. As a result, the activity of the enzyme was stable within the pH range between 6.7 and 12.1
The reaction was performed within the temperature range between 16° C. and 60° C. […]

Substrate in series [6]: Nc1ncnc2c1ncn2[C@@H]1O[C@H](COP(=O)(O)OP(=O)(O)OP(=O)(O)O)[C@@H](O)[C@H]1O
The series is described as follows: Km values of the purified kinase. It is filed as biochemical, Exiguobacterium acetylicum. The settings on record: other: for ATP when guanosine was used as a substrate; pH 7.5; 30.0 °C. As to the method:
as §1

Substrate in series [7]: OC[C@H]1O[C@@H](n2cnc3c(O)ncnc32)[C@H](O)[C@@H]1O
The series is described as follows: Km values of the purified kinase. As to conditions: other: substrate concentration varied; pH 7.5; 30.0 °C. The series is classed as biochemical, Exiguobacterium acetylicum. As to the method:
as §1

Substrate in series [8]: Nc1nc2c(ncn2[C@@H]2O[C@H](CO)[C@@H](O)[C@H]2O)c(=O)[nH]1
The series is described as follows: Km values of the purified kinase. The series is classed as biochemical, Exiguobacterium acetylicum. The settings on record: other: substrate concentration varied; pH 7.5; 30.0 °C. As to the method:
as §1

Regarding `[Ba+2].[Cl-].[Cl-]` [BaCl2], the Relative activity in series [1] is recorded as 106%.

For `O.O.[Ca+2].[Cl-].[Cl-]` [CaCl2.2H2O], the Relative activity in series [1] is listed as 71%; in series [2] it was 1%.

For `O=c1[nH]c(=O)c2ncn([C@@H]3O[C@H](CO)[C@@H](O)[C@H]3O)c2[nH]1` [xanthosine], the Relative activity in series [3] was 0%.

With `Nc1nc2c(ncn2[C@@H]2O[C@H](CO)[C@@H](O)[C@H]2O)c(=O)[nH]1` [guanosine], in series [3], the “use as phosphate receptor (in words)” value is listed as “used as a phosphate receptor” and the Relative activity stood at 100%.

Regarding `[Cl][Cd][Cl]` [CdCl2], in series [1], the “inhibition of the enzyme by metal ions (in words)” value (shortened to “inhibition of the enzyme”) was “also inhibited” and the Relative activity stood at 43%.

On to `Nc1nc2c(ncn2[C@H]2C[C@H](O)[C@@H](COP(=O)(O)OP(=O)(O)OP(=O)(O)O)O2)c(=O)[nH]1` [2′-deoxyguanosine triphosphate], for which, in series [4], the “use as phosphate donor (in words)” value is given as “used as the phosphate donor” and the Relative activity turned out to be 61%.

As for `OC[C@H]1O[C@@H](n2cnc3c(O)ncnc32)[C@H](O)[C@@H]1O` [inosine], in series [3], the “use as phosphate receptor (in words)” value is “used as a phosphate receptor” and the Relative activity is 5%.

As for `O.O.[Cl][Cu][Cl]` [CuCl2.2H2O], in series [1], the “inhibition of the enzyme” value was “strongly inhibited” and the Relative activity is given as 25%.

For `O.O.O.O.O.O.[Cl][Ni][Cl]` [NiCl2.6H2O], the values for the Relative activity in series [1] and in series [2] were 113% and 1%, respectively.

`Nc1ncnc2c1ncn2[C@@H]1O[C@H](CO)[C@@H](O)[C@H]1O` [adenosine]: in series [3], the Relative activity came to 0%.

Take `O.O.O.O.O.O.[Cl-].[Cl-].[Co+2]` [CoCl2.6H2O]: the results for the Relative activity in series [1] and in series [2] were 103% and 36%, respectively. Moreover, the “metal requirement (in words)” value in series [2] is given as “the reaction proceeded”.

As to `O.O.O.O.[Cl][Mn][Cl]` [MnCl2.4H2O], in series [1], the Relative activity was 81%. Moreover, in series [2], the Relative activity amounted to 55% and the “metal requirement (in words)” value was “the reaction proceeded”.

Regarding `[Cl][Hg][Cl]` [HgCl2], in series [1], the “inhibition of the enzyme” value is “strongly inhibited” and the Relative activity amounted to 22%.

On to `O.O.O.O.O.O.O.O=S(=O)([O-])[O-].[Fe+2]` [FeSO4.7H2O], for which, in series [1], the Relative activity was 95%. Besides, in series [2], the Relative activity was 24% and the “metal requirement (in words)” value is “the reaction proceeded”.

For `Nc1nc2c(ncn2[C@H]2C[C@H](O)[C@@H](CO)O2)c(=O)[nH]1` [2′-deoxyguanosine], in series [3], the “use as phosphate receptor (in words)” value is on record as “used as a phosphate receptor” and the Relative activity was found to be 4%.

Consider `[Cl-].[Cl-].[Zn+2]` [ZnCl2], for which, in series [1], the “inhibition of the enzyme” value is “also inhibited” and the Relative activity turned out to be 58%. Moreover, in series [2], the Relative activity worked out at 1%.

For the molecule `Nc1ncnc2c1ncn2[C@H]1C[C@H](O)[C@@H](CO)O1` [2′-deoxyadenosine], in series [3], the Relative activity stood at 0%.

Turning to `Nc1ccn([C@@H]2O[C@H](COP(=O)(O)OP(=O)(O)OP(=O)(O)O)[C@@H](O)[C@H]2O)c(=O)n1` [cytidine triphosphate], in series [4], the Relative activity was found to be 6%.

On to `O.O.O.O.O.O.[Cl-].[Cl-].[Mg+2]` [MgCl2.6H2O], for which, in series [2], the Relative activity was determined as 100% and the “metal requirement (in words)” value is on record as “the reaction proceeded”.

As for `O.O.O.O.O.O.O.O=S(=O)([O-])[O-].[Mg+2]` [MgSO4.7H2O], the Relative activity was found to be 110% in series [1] and 107% in series [2].

Turning to `Nc1ncnc2c1ncn2[C@@H]1O[C@H](COP(=O)(O)OP(=O)(O)OP(=O)(O)O)[C@@H](O)[C@H]1O` [adenosine triphosphate], in series [4], the “use as phosphate donor (in words)” value is given as “used as the phosphate donor” and the Relative activity turned out to be 100%.

For the molecule `Nc1nc2c(ncn2[C@@H]2O[C@H](COP(=O)(O)OP(=O)(O)OP(=O)(O)O)[C@@H](O)[C@H]2O)c(=O)[nH]1` [guanosine triphosphate], in series [4], the “use as phosphate donor (in words)” value is recorded as “used as the phosphate donor” and the Relative activity is given as 59%.

For `O=c1ccn([C@@H]2O[C@H](COP(=O)(O)OP(=O)(O)OP(=O)(O)O)[C@@H](O)[C@H]2O)c(=O)[nH]1` [uridine triphosphate], in series [4], the Relative activity turned out to be 4%.

Take `Nc1ncnc2c1ncn2[C@H]1C[C@H](O)[C@@H](COP(=O)(O)OP(=O)(O)OP(=O)(O)O)O1` [2′-deoxyadenosine triphosphate]: in series [4], the “use as phosphate donor (in words)” value is listed as “used as the phosphate donor” and the Relative activity came out at 71%.

B1: inosine-guanosine kinase derived from Exiguobacterium acetylicum (Exiguobacterium acetylicum) (protein)
chain: MNKIAVIGKVFVDIKGTSFAPLHKDAKNVGDITFSNGGTGRNVAQNLAVLGNEVRFISTVTNDQIGVGVLDELKSYGANVDHVEMLEDHGMGMWLAVMDNEGDLQTSISKQPDAKLLEEAILRQSIYALDGVDAVAIDLDLSVTVLERLIHLCRKMELPLFGVCGHLSVIERNRHLLQGFTGFICSREEAEILSDLSIVTVEDAIHVANELAKKGAPFTVVTMSELGAVYVDRRTATSGHVGTKKVKVVDSTGAGDSFFSAVLSELTQEKSAEEALKLGMKVAAEVIASTENGLVPEMLDALQ
In turn, B1 yielded a residual activity maintained in series [5] (treatment at 25° C. or lower for 30 minutes) of no less than 50%. In addition, the “temperature at which the enzyme was inactivated” value in series [5] (treatment for 30 minutes at 4 to 60° C.) was no less than 40 °C. Also, the Km (commonly the substrate concentration at which the rate is half of its maximum) stood at 1600 µM in series [6], 1000 µM in series [7] and 30 µM in series [8].
